Patent US20090258069A1, “Delivery of LFA-1 antagonists to the gastrointestinal system” (priority 2008, published 2009)
Read-outs that look alike come from different tables or passages of the source.

Key:
healthy adults = experiment: Phase 1 clinical trial of Compound 12 Ophthalmic Solution, safety and tolerability; assay type: in vivo, human
Source text: The objectives of the trial were to measure safety and tolerability, and pharmacokinetics in tear and plasma. The dosing schedule (OU; Oculus Uterque (each eye or both eyes)) was divided into 3 periods, each separated by a 72-hour wash out interval: once/day×1 day (drug one eye; placebo fellow eye), twice/day×10 days, and thrice/day×10 days, 14-day observation. Slit lamp examination of the eye, BCVA (Best Corrected Visual Acuity), STTs (Schirmer Tear Test), TBUT (Tear Break-Up Time), IOP (Intraocular pressure) were assessed at screening and the beginning and end of each period. For each cohort, masked safety data was reviewed by a Safety Committee prior to allowing dose escalation of the next cohort. A total of 2856 doses (102 drops/subject) were administered over 1148 total subject study days (41 study days/subject) in 56 eyes. All subjects in all cohorts completed the study, and no study drug doses were missed.

[1] = test system: attachment of Jurkat cells to ICAM-1; experiment: T-cell adhesion assay using Jurkat cells; assay type: cell-based, human
Description: A reported LFA-1 antagonist was used as the positive control.
Jurkat cells were labeled with an 8 μM solution of BCECF-AM (2′,7′-bis-(2-carboxyethyl)-5-(and -6)-carboxyfluorescein) in growth media at room temperature for 15 minutes. […] Non-adherent cells were removed by washing and centrifugation at 100 g for 1 minute. Adherent cells were determined as adherent fluorescent units on a fluorescent plate reader.

mini-pigs = experiment: Pilot mini-pig dermal study; assay type: in vivo; conditions: DMSO, gel, ointment, lotion at 1%; TID 7 days, 10 mg/cm^2 on about 50 cm^2
Source text: (§1) One pig/dose formulation was used. In-life PK analysis was completed.

[2] = Pilot mini-pig dermal study; assay type: in vivo; conditions: minipig, plasma, topical, 10 mg/cm^2 of 1% formulation over approximately 50 cm^2; all groups; below LLOQ; read-out: Plasma levels
Source text: as §1

in vivo = conditions: topical or ocular
[3] = test system: Chinese hamster ovary (CHO) cells; experiment: In vitro chromosomal aberration assay in CHO cells; assay type: cell-based; conditions: with and without metabolic activation, except single toxic dose 3500 μg/mL, 3-hour
Source text: The biological relevance of this response is equivocal due to cytotoxicity.

[4] = in vivo
dogs = experiment: 13-week ocular toxicity study in dogs with 4-week recovery (with TK); conditions: (3%)
[5] = Acute toxicity, single dose IV in rats; conditions: rat, in vivo
Description: 4. Acute Toxicity Studies: For single dose IV in rats, the no observable adverse effect level (NOAEL) was 10 mg/kg IV. For escalating single dose IV and 7-day repeated dose with TK (toxicokinetics) in dogs, the NOAEL was 10 mg/kg IV. For single dose ocular tolerance in rabbits, the NOAEL was 3.5 mg/eye/3× per day (10%).

[6] = test system: human mononuclear cells (PBMC) stimulated with staphylococcal enterotoxin B (SEB); experiment: cells; assay type: cell-based
rabbits = experiment: Single dose ocular tolerance in rabbits; assay type: in vivo, rabbit; conditions: (10%)
[7] = Single dose ocular and IV ADME with [^14C]-Compound 12 in dogs; assay type: in vivo, dog
Source text: Following an ocular dose, the highest average [^14C]-Compound 12 levels were detected in anterior ocular tissues (see FIG. 16). […] No differences in results from male and female dogs were observed.

[8] = Tear PK after a single topical ocular instillation in rabbits
[9] = rabbit, in vivo, topical or ocular, 1.05 mg
[10] = single instillation of 0.1, 1.0 or 3.0% dose strength

For `CS(=O)(=O)c1cccc(C[C@H](NC(=O)c2c(Cl)cc3c(c2Cl)CCN(C(=O)c2ccc4ccoc4c2)C3)C(=O)O)c1` [Compound 12], the “deaths, discontinuations, serious or severe AEs considered related to drug” value (healthy adults; 0.1%, 0.3%, 1% and 5% dose strengths, any dose regimen) was “No deaths, discontinuations, serious or severe ocular or non-ocular AEs”, the “overall safety and tolerability, topical ocular instillation” value (healthy adults; dose strengths up to 5% TID) was “safe and well-tolerated” and the “localized ocular irritation or infection” value (healthy adults; human, in vivo) was “no evidence of localized ocular irritation or infection”. For the same compound, the “Blood pressure, heart rate, respiratory rate, temperature, body weight, and EKG results” value (healthy adults; throughout the trial) was “within normal ranges”, the “Total lymphocyte count, CD3, CD4, and CD8 cell counts” value (healthy adults; throughout the trial) was “within normal ranges with no evidence of lymphocyte or neutrophil suppression” and the “Jurkat cell attachment to ICAM-1” value ([1]; 30 min preincubation, 1 h at 37° C.) was “inhibition of Jurkat cell attachment with increasing dose”. The “dose response curve and IC50, Jurkat cell attachment” value ([1]; vs positive control) was “comparable to that of the known direct competitive LFA-1 antagonist”, the “toxicity, dermal formulations” value (mini-pigs) was “No toxicity” and the concentration at 7 days [2] was < 0.5 ng/mL. It also gave an AUC (in vivo; 0.105 mg) of 5.19 ± 5.39 ng·h/mL, a Cmax (in vivo; 0.105 mg) of 11.7 ± 8.8 ng/mL and an AUC (in vivo; 0.35 mg) of 7.35 ± 1.52 ng·h/mL. For the same compound, the Cmax (in vivo; 0.35 mg) was 13.1 ± 2.12 ng/mL, the “structural chromosomal aberrations in CHO cells” value [3] was “negative” and the “ocular dose absorbed into the systemic circulation” value [4] was 6.9-32%. The NOAEL (dogs) was 1.05 mg/eye/3× per day, the NOAEL [5] was 10 mg/kg and the EC50 ([6]; read-out: EC50 Cytokine Release GM-CSF) was 0.545 µM. It also gave an EC50 ([6]; read-out: EC50 Cytokine Release IFNγ) of 0.0016 µM, an EC50 ([6]; read-out: EC50 Cytokine Release IL-1α) of 0.24 µM and an EC50 ([6]; read-out: EC50 Cytokine Release IL-1β) of 0.36 µM. For the same compound, the EC50 ([6]; read-out: EC50 Cytokine Release IL-2) was 0.0018 µM, the EC50 ([6]; read-out: EC50 Cytokine Release IL-3) was 52.2 µM and the EC50 ([6]; read-out: EC50 Cytokine Release IL-4) was 0.143 µM. It also gave an EC50 ([6]; read-out: EC50 Cytokine Release IL-5) of 0.11 µM, an EC50 ([6]; read-out: EC50 Cytokine Release IL-6) of 43.5 µM and an EC50 ([6]; read-out: EC50 Cytokine Release IL-10) of 0.147 µM. For the same compound, the EC50 ([6]; read-out: EC50 Cytokine Release IL-12p40) was > 1000 µM, the EC50 ([6]; read-out: EC50 Cytokine Release IL-13) was 0.36 µM and the EC50 ([6]; read-out: EC50 Cytokine Release IP-10) was 1.16 µM. For the same compound, the EC50 ([6]; read-out: EC50 Cytokine Release MCP-1) was 0.005 µM, the EC50 ([6]; read-out: EC50 Cytokine Release MIP-1α) was 0.02 µM and the EC50 ([6]; read-out: EC50 Cytokine Release TNF-α) was 0.076 µM. The IC50 ([6]; read-out: IC50 values in in vitro cell assays (cell attachment and SEB IL-2 release)) was 0.002 µM, the NOAEL (rabbits) was 3.5 mg/eye/3× per day and the levels in conjunctiva/cornea ([7]; dog, for 16 hrs) was “greater than 1 micromolar”. For the same compound, the “metabolites in pooled plasma, urine and fecal homogenate” value ([7]; up to 168 hrs post-dose, 3 mg/eye or 3 mg/dog) was “no metabolites detected”, the AUC [8, 9] was 183000 ng·h/mL and the Cmax [8, 9] was 314000 ng/mL. For the same compound, the “time of return of tear concentration to baseline” value [8, 10] was ≤ 4 h and the “time to maximal mean tear concentration” value [8, 10] was ≤ 30 min.
